Measured values from PubChem BioAssay AID1963429 (Molecular Pharmacology Branch, DTP, NCI, 2024).
pIC50: −log10 of the molar value. Where “and” joins values, the source holds several entries; their conditions need not be identical. Equal entries are not always repeated.

System: 126254-015-R-J1-PDC complex spheroid growth, % test/control
Experiment: Anticancer human tumor 126254-015-R-J1-PDC patient-derived soft tissue sarcoma cell line growth inhibition [Asc]
Settings: for viability, T/C: stronger effect = lower value
Method in brief: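 Concentration series start at each agent's clinical Cmax, or at 10 microM when none is established, and drop in half-log steps; agents are applied alone or together to complex spheroids built with HUVEC and hMSC.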

[1] = curve of first compound, second compound 0.1 µM
[2] = curve of first compound, second compound 0.316 µM
[3] = curve of first compound, second compound 1 µM
[4] = second compound 0.1 µM, first compound 0.0316 µM
[5] = second compound 0.1 µM, first compound 0.1 µM
[6] = second compound 0.1 µM, first compound 0.316 µM
[7] = second compound 0.1 µM, first compound 1 µM
[8] = second compound 0.1 µM, first compound 3.16 µM
[9] = second compound 0.1 µM, first compound 10 µM
[10] = second compound 0.316 µM, first compound 0.0316 µM
[11] = second compound 0.316 µM, first compound 0.1 µM
[12] = second compound 0.316 µM, first compound 0.316 µM
[13] = second compound 0.316 µM, first compound 1 µM
[14] = second compound 0.316 µM, first compound 3.16 µM
[15] = second compound 0.316 µM, first compound 10 µM
[16] = second compound 1 µM, first compound 0.0316 µM
[17] = second compound 1 µM, first compound 0.1 µM
[18] = second compound 1 µM, first compound 0.316 µM
[19] = second compound 1 µM, first compound 1 µM
[20] = second compound 1 µM, first compound 3.16 µM
[21] = second compound 1 µM, first compound 10 µM
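Further: spheroids exposed to compound for seven days.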
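Wherever viability, T/C is given: 100% = DMSO vehicle control wells.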

pIC50 [1]	pIC50 [2]	pIC50 [3]	SMILES	viability, T/C [4]	viability, T/C [5]	viability, T/C [6]	viability, T/C [7]	viability, T/C [8]	viability, T/C [9]	viability, T/C [10]	viability, T/C [11]	viability, T/C [12]	viability, T/C [13]	viability, T/C [14]	viability, T/C [15]	viability, T/C [16]	viability, T/C [17]	viability, T/C [18]	viability, T/C [19]	viability, T/C [20]	other results
< 5.00	< 5.00	< 5.00	C=CC(=O)N1CCN(c2nc(=O)n(-c3c(C)ccnc3C(C)C)c3nc(-c4c(O)cccc4F)c(F)cc23)C(C)C1 (configuration not stated) + Cc1c(S(C)(=O)=O)c(-c2cc(F)cc(N3CCN(c4ccc(NS(=O)(=O)c5ccc(NC(CCN6CCC(C(=O)OCCCP(=O)(O)O)CC6)CSc6ccccc6)c(S(=O)(=O)C(F)(F)F)c5)cc4)CC3)c2)c(-c2ccc(Cl)cc2)n1C(C)C	89.8%	89.4%	95.8%	103%	101%	76.3%	90.5%	86.2%	96.5%	91.2%	107%	84.1%	93.9%	89%	91.2%	93%	92.8%	pIC50 (curve of first compound, second compound 3.16 µM): < 5.00; pIC50 (curve of first compound, second compound 10 µM): < 5.00; viability, T/C [21]: 77.6%; viability, T/C (second compound 3.16 µM, first compound 0.0316 µM): 83.8%; viability, T/C (second compound 3.16 µM, first compound 0.1 µM): 91.5%; viability, T/C (second compound 3.16 µM, first compound 0.316 µM): 90.9%; viability, T/C (second compound 3.16 µM, first compound 1 µM): 93.2%; viability, T/C (second compound 3.16 µM, first compound 3.16 µM): 101%; viability, T/C (second compound 3.16 µM, first compound 10 µM): 78.1%; viability, T/C (second compound 10 µM, first compound 0.0316 µM): 91.3%; viability, T/C (second compound 10 µM, first compound 0.1 µM): 94.1%; viability, T/C (second compound 10 µM, first compound 0.316 µM): 105%; viability, T/C (second compound 10 µM, first compound 1 µM): 87%; viability, T/C (second compound 10 µM, first compound 3.16 µM): 91.7%; viability, T/C (second compound 10 µM, first compound 10 µM): 81.6%
5.56	5.44	5.73	O=C(c1cc(Cc2n[nH]c(=O)c3ccccc23)ccc1F)N1CCN(C(=O)C2CC2)CC1 + CNC(C)C(=O)NC1CN(S(=O)(=O)c2cccc(S(=O)(=O)N3CCC4CCC(C(=O)NC(c5ccccc5)c5ccccc5)N4C(=O)C(NC(=O)C(C)NC)C3)c2)CCC2CCC(C(=O)NC(c3ccccc3)c3ccccc3)N2C1=O	66.2%	77.8%	75.4%	59.6%	49.8%	27.4%	62.2%	56.4%	59.7%	57.8%	52.9%	29%	54.7%	62.2%	61.4%	54.9%	44.9%	pIC50 (curve of first compound, second compound 0.01 µM): 5.04; pIC50 (curve of first compound, second compound 0.0316 µM): 5.21; viability, T/C (second compound 0.01 µM, first compound 0.0316 µM): 97.3%; viability, T/C (second compound 0.01 µM, first compound 0.1 µM): 89.8%; viability, T/C (second compound 0.01 µM, first compound 0.316 µM): 94.5%; viability, T/C (second compound 0.01 µM, first compound 1 µM): 82.8%; viability, T/C (second compound 0.01 µM, first compound 3.16 µM): 77.6%; viability, T/C (second compound 0.01 µM, first compound 10 µM): 47.1%; viability, T/C (second compound 0.0316 µM, first compound 0.0316 µM): 85.1%; viability, T/C (second compound 0.0316 µM, first compound 0.1 µM): 82.4%; viability, T/C (second compound 0.0316 µM, first compound 0.316 µM): 78.2%; viability, T/C (second compound 0.0316 µM, first compound 1 µM): 80.2%; viability, T/C (second compound 0.0316 µM, first compound 3.16 µM): 55.1%; viability, T/C (second compound 0.0316 µM, first compound 10 µM): 46.3%; viability, T/C [21]: 22.2%
–	–	–	Cc1nc(N2CCC3(CC2)COC(C)C3N)c(CO)nc1Sc1ccnc(N)c1Cl (configuration not stated)	–	–	–	–	–	–	–	–	–	–	–	–	–	–	–	–	–	viability, T/C (compound 0.00949 µM): 94.9% and 93.9% and 98.2%; viability, T/C (compound 0.03 µM): 103% and 83.5% and 93.7%; viability, T/C (compound 0.0949 µM): 86.2% and 84% and 84.9%; viability, T/C (compound 0.3 µM): 84.7% and 73.4% and 69.1%; viability, T/C (compound 0.949 µM): 76.9% and 51.7% and 54.3%; viability, T/C (compound 3 µM): 50.1% and 41.1% and 43.9%; pIC50 (curve of compound): < 5.52 and 5.90 and 5.82
